Measured values as given in patent EP0200607A1, “Surfactant chlorhexidine salts and compositions” (PIERRE FABRE COSMETIQUE, priority 1985, dated 1986).

Key:
Staphylo-coque aureus = assay: Antibacterial properties (Tableau I), Staphylococcus aureus; type: cell-based
Source text: (§1) Des expérimentations ont été conduites afin de vérifier si ce nouveau sel de CHX possédait une bonne activité antiseptique comparativement au digluconate de CHX, sel de CHX des plus connus et largement utilisé et ce comparativement à l'acide AEC, ce dernier pouvant avoir par lui-même des propriétés antiseptiques.
(§2) L'activité de ces trois produits a été testée sur quatre germes […] et il a été constaté que non seulement on obtenait une activité voisine de celle du digluconate de CHX, mais que de plus, cette activité était plus importante dans trois cas (voir tableau I).

[1] = tested on: Escherichia coli ATCC 10536; assay: Antibacterial properties (Tableau I), Escherichia coli; type: cell-based
Source text: as §1, §2

[2] = tested on: Pseudomonas aeruginosa A 22; assay: Antibacterial properties (Tableau I), Pseudomonas aeruginosa; type: cell-based
Source text: as §1, §2

Candida albicans = assay: Antibacterial properties (Tableau I), Candida albicans; type: cell-based
Source text: as §1, §2

[3] = Foaming power (10 inversions of a stoppered cylinder); type: physicochemical; settings: 50 ml of a 10 % active matter solution, 100 ml cylinder, 23°C
Description: _Le_pouvoir moussant de l'acide éthoxycarboxylique et de l'éthoxycarboxylate de CHX a été vérifié, et ce comparativement.
A cet effet, on prépare une solution de tensioactif à 10% de matière active. On prélève 50 ml de cette solution que l'on introduit dans une éprouvette de 100 ml (diamètre intérieur 26 mm et hauteur 235 mm). On bouche hermétiquement cette éprouvette et on la soumet à 10 retournements successifs pour provoquer la formation de mousse. Cette manipulation se fait à 23°C (température de la solution).

[4] = parameters: species or system cobaye; settings: in vivo
Source text: On peut penser que cette différence de pouvoir moussant est apportée par le solvant propylèneglycol […] Tolérance : On s'est contenté de vérifier la bonne tolérance cutanée et oculaire du tensioactif acide éthoxycarboxylique et du nouveau sel de CHX de cet exemple, pour bien démontrer la parfaite inocuité de ce nouveau produit.
. tolérance cutanée cobaye :
On voit d'après ces résultats que cette tolérance est meilleure sur ce test pour le nouveau sel de CHX que pour l'acide éthoxycarboxylique. La différence d'épaisseur de pli de peau mesuré le 4ème jour d'application quotidienne est de 0,23 contre 1,2 mm, l'érythème de 1,4 contre 4.

[5] = parameters: species or system lapin; settings: in vivo
Source text: . tolérance cutanée lapin :

[6] = Acute toxicity, intraperitoneal LD50; type: in vivo
Source text: (§3) La toxicité de ce nouveau sel de CHX a été vérifiée comparativement au tensioactrf sous forme acide de départ, au tensioactif neutralisé par l'ion sodium, à la CHX base et à l'association tensioactif neutralisé par l'ion sodium + CHX base, car il est bien connu que la toxicité d'une molécule peut être potentialisée par la présence d'un tensioactif.
(§4) Deux tests ont été utilisés : • 1- l'évaluation de la DL 50 par voie orale, • 2- l'évaluation de la DL 50 par voie intra-péritonéale.

[7] = in vivo
[8] = tested on: Pseudomonas aeruginosa A 22; assay: Antiseptic activity by dilution in liquid medium (MIC and MBC), with anionic surfactants; type: cell-based; settings: Pseudomonas aeruginosa A 22, 10^6 germes/ml
Source text: de dilutions en milieu liquide, selon Peterson, Lance R., Denny, Aiken E., Gerding, Dale N. and Hall, Wendell H. :"determination of tolerance to antibiotic bactericidal on activity on Kivby-Baver susceptibility plates Am.J.Clin.Pathol. 74 : 645-650,1980.
Le but de la méthode est de déterminer la plus petite quantité d'un produit X qui exerce sur 10^6 cellules d'une flore bactérienne donnée une activité antiseptique de type bactériostatique ou bactéricide.
La méthode de dilution en milieu liquide permet de déterminer la CMI (concentration minimale inhibitrice-bacté- riostase) et la CMB (concentration minimale léthale-bactéricidie).
• . pipettes de 1 ml graduées au 1/100 en polystyrène cristal stériles, . pipettes Pasteur stériles, • . flacons en verre stériles de 30 ml, 100 ml, • . tubes à essai en verre PYREX stériles 65 x 13 mm, 160 x 16 mm, 25 x 200 mm et 18 x 180 mm, • . boîtes de Pétri, polystyrène cristal- stériles de 90 mm de diamètre, • . lumétron, colorimètre réf.401, • les milieux de culture liquides et gélosés sont adaptés à la croissance de l'espèce de microorganisme en test Pseudomonas aeruginosa. Un témoin de fertilité des milieux liquides et gélosés est réalisé à chaque expérimentation.
Les différents produits testés sont des solutions aqueuses d'alkyl éthoxycarboxylate de chlorhexidine (3%) et contenant un pourcentage variable de tensioactifs anioniques. Les solutions mères sont des dilutions au 1/10e des solutions précédentes.
Pseudomonas aeruginosa est ensemencé en stries sur une pente de gélose Tryptone Soya (CM 131 OXOID). On incube de 18 à 24 Heures à 32-35°C.
Pour le Pseudomonas aeruginosa, une transmission de 90 % représente une valeur de 2-10^8 germes/ml donc une dilution au 1/100e est nécessaire.
On prépare sur un portoir une série de tubes à hémolyse 65 x 13 mm stériles.
Chaque tube reçoit 1 ml de milieu de culture liquide dont la composition est adaptée à la croissance du germe (bouillon BN pour Pseudomonas aéruginosa).
Le tube reçoit 1 ml de la solution mère du produit à analyser. On homogénéise puis effectue des passages successifs au 1/2 jusqu'au dernier tube. Le volume dans tous les tubes est alors de 1 ml.
Toutes les dilutions sont ensemencées avec 1 ml de milieu de culture titrant […] par ml. Dans chaque tube on a alors 1.10^6 germes par ml.
Un tube sans antiseptique permet d'effectuer un dénombrement des microorganismes effectivement introduits dans le test et permet de s'assurer de la vitalité de la souche.
Dénombrement par la méthode de dilution-incorporation et incubation à l'étuve pendant 48 heures à 37°C.
La concentration minimale inhibitrice est la plus petite quantité de produit qui empêche le développement microbien (jugé à l'oeil) ;elle est exprimée en microgramme de chlorhexidine base par millilitre. […]

[9] = Acute toxicity, oral LD50; type: in vivo
Source text: as §3, §4

Solubility (qualitative) = settings: water

Question: Which “Propriétés antibactériennes” value (Staphylo-coque aureus) does the source give for “alkyl éthoxycarboxylique acide [AEC acide]” here?
Answer: 1,56 mg/ml

Question: And the “Propriétés antibactériennes” value [1]?
Answer: 12,5 mg/ml

Question: What about the “Propriétés antibactériennes” value [2] of the same molecule?
Answer: 6,2 mg/ml

Question: What about the “Propriétés antibactériennes” value (Candida albicans) of the same molecule?
Answer: 50 mg/mL

Question: And the “Pouvoir moussant (mousse)” value [3]?
Answer: 26 mL

Question: And the “différence d'épaisseur de pli de peau” value [4]?
Answer: 1,2 mm

Question: What about the érythème [4] of the same molecule?
Answer: 4

Question: And the “indice d'irritation primaire” value [5]?
Answer: 0,75

Question: What about the “DL 50 voie intrapérito-néale” value [6] of the same molecule?
Answer: 0,5 g/kg

Question: What about the tolérance oculaire [7] of the same molecule?
Answer: la mieux tolérée

Question: Which “Pouvoir moussant (mousse)” value [3] does the source give for “Alkyl éthoxycarboxylate de chlorhexidine [AEC de CHX]” here?
Answer: 16 mL

Question: And the “différence d'épaisseur de pli de peau” value [4]?
Answer: 0,23 mm

Question: What about the érythème [4] of the same molecule?
Answer: 1,4

Question: And the “indice d'irritation primaire” value [5]?
Answer: 0,25

Question: What about the CMI ([8]; aqueous solutions with 3% alkyl éthoxycarboxylate de chlorhexidine) of the same molecule?
Answer: 8 microgramme de chlorhexidine base par millilitre

Question: What about the CMB ([8]; sub-culture on neutralising medium) of the same molecule?
Answer: 8 microgramme de chlorhexidine base par millilitre

Question: Which “DL 50 voie orale” value [9] does the source give for `[H]/N=C(\N/C(=N/[H])NCCCCCCNC(=N)NC(=N)Nc1ccc(Cl)cc1)Nc1ccc(Cl)cc1` [chlorhexidine base, 1,6-di-(p-chlorophényl-biguanido) hexane] here?
Answer: pas de mortalité

Question: And the LD50 ([6]; in vivo, ip, read-out: DL 50 voie intrapérito-néale)?
Answer: 47 to 100 mg/kg

Question: And the “solubilité dans l'eau” value (Solubility (qualitative))?
Answer: insoluble dans l'eau

Question: For Alkyl éthoxycarboxy-late de sodium, which “DL 50 voie orale” value [9] is on record?
Answer: 7,5 g/kg

Question: For `N=C(NCCCCCCNC(=N)NC(=N)Nc1ccc(Cl)cc1)NC(=N)Nc1ccc(Cl)cc1` [Digluconate de CHX, Digluconate de chlorhexidine], which MIC ([8]; A22, aqueous solutions with 3% alkyl éthoxycarboxylate de chlorhexidine, read-out: CMI) is on record?
Answer: 8.75 µg/mL

Question: And the MBC ([8]; A22, sub-culture on neutralising medium, read-out: CMB)?
Answer: 8.75 µg/mL
